Holding throughout (type): cell-based, human
One test concerns MCF-7 cells. Nature of the test: MTT cytotoxicity, breast cancer cells MCF-7. The conditions noted are these: MTT, no * mark (incubation time not specified). The text has this:
(§1) The cytotoxicity, general tyrosine kinase inhibitory effects and cell death (apoptosis/necrosis) assays of 1-benzyl-3-(1H-indol-3-ylmethylidene)-1,3-dihydro-2H-indol-2-one derivatives (Formula 5) of the present invention are studied by the following methods. […] HUVEC (human umbilical vein endothelial cell), MCF-10F (human breast epithelial cell) and Beas2b (human lung bronchial epithelial cell) cell lines have been used as healthy control cells in MTT experiments.
(§2) Beas2b (human lung bronchiole epithelial cell) and HEK293 (renal tubule epithelium) cells used as normal cell lines were cultured in RPMI medium, and HUVEC (human umbilical cord endothelial cells) and MCF-10F (human breast epithelial cell) cells are cultured in DMEM medium containing 100 µg/ml penicillin/streptomycin. The cells, which covered 70% of the culture flask, are washed with phosphate buffer and then removed from the surface of the flask by application of trypsin-ethylenediamine tetraacetic acid (Trypsin-EDTA; 0.25%) solution, passaged, counted and seeded on appropriate plates before each experiment. Cells are treated with a total of 45 2-indolinone compounds (5) at concentrations of 0.1, 1, 5 and 10 μM. Stock compounds are prepared in 1 ml dimethylsulfoxide (DMSO) and 4 different dilutions were prepared with medium and performed to the cells. Control group cells are treated with DMSO at a similar concentration to the experimental groups.
(§3) MTT (3-(4,5-dimethylthiazol-2-yl)-2,5-diphenyl-2H-tetrazolium bromide) colorimetric assay provides quantitation of viable cells with ongoing mitochondrial activity in culture medium. According to the standard procedure in cell culture conditions, cells are maintained in RPMI-1640 and DMEM culture media containing 10% FBS and 1% penicillin/streptomycin. The trypan blue test is used for cell counts.
(§4) The effects of 45 2-indolinone compounds (5) on cell viability in all cancer cell lines are investigated by MTT assay. Cells are seeded in a 96-well flat bottom plate with 5000 cells in each well and 2-indolinone compounds (5) at concentrations of 0.1, 1, 5 and 10 μM are performed to the cells the next day. After 48 and/or 72 hours following treatment with 2-indolinone compounds, 50 μl of the supernatant is slowly discarded (as it was acid medium) and MTT at a concentration of 5 mg/ml is added to each well in a volume of 10 μl. After incubation for 4 hours, the formazan crystals formed in the wells are dissolved by adding 100 μl DMSO and the optical density is read at 570 nm test wavelength and 630 nm reference wavelength. Cell viability is expressed as % cell viability by comparing the absorbance of control and test wells. IC50 value is calculated from the dose-response curves prepared for each compound. In addition, the possible DMSO effect is eliminated by preparing negative control wells compatible with the amount of DMSO contained in the compounds. To understand the reaction of the compounds with MTT, cell-free (MTT+compounds) negative controls are prepared at the concentrations used (Mosmann, 1983). […] The absorbance values obtained are compared to the control and statistically evaluated by unpaired t-test using “Graphpad Prism 5.04” software. “P<0.05” is accepted as significant. When evaluating cytotoxic effects, the present inventors aim for the inventive compounds to be effective in cancer cells and ineffective in healthy cells. The inventive compounds have also been compared with sunitinib, one of the reference chemotherapy drugs currently used in treatment.
(§5) Among the compounds of the present invention, those that killed cancer cells by at least 50% (p<0.05) are selected and tested whether a 10-fold concentration of the M concentration at the IC50 value is toxic to normal healthy cells.

The next test has as its system MDA-MB-231 cells. Nature of the test: MTT cytotoxicity, breast cancer cells MDA-MB-231. Conditions: read-out: IC50, MDA-MB-231 (breast); MTT, no * mark (incubation time not given).
Source text: as §1, §2, §3, §4, §5

The subject of a further test is A549 cells. Nature of the test: MTT cytotoxicity, lung cancer cells A549. Conditions: no * mark (incubation time not specified).
Source text: as §1, §2, §3, §4, §5

The next test has as its system CAKI-1 cells. In words: MTT cytotoxicity, kidney cancer cells CAKI-1.
Source text: as §1, §2, §3, §4, §5

The next test has as its system A498 cells. Nature of the test: MTT cytotoxicity, kidney cancer cells A498. The conditions noted are these: MTT.
Source text: as §1, §2, §3, §4, §5

The test system of the next test is MCF-10F/Beas2b cells. Nature of the test: MTT cytotoxicity, healthy cells MCF-10F/Beas2b. Conditions: for IC50: MTT.
Source text: as §1, §2, §3, §4, §5

The test system of a further test is HUVEC cells. Nature of the test: MTT cytotoxicity, healthy cells HUVEC. The conditions noted are these: for IC50: MTT.
Source text: as §1, §2, §3, §4, §5

In a further test the test system is HT-29 cells. Nature of the test: MTT cytotoxicity, colon cancer cells HT-29. Conditions: MTT, no * mark (incubation time not specified).
Source text: as §1, §2, §3, §4

In another test the test system is HCT-116 cells. Nature of the test: MTT cytotoxicity, colon cancer cells HCT-116. The conditions noted are these: no * mark (incubation time not specified).
Source text: as §1, §2, §3, §4

The next test concerns MIAPaCa-2 cells. Nature of the test: MTT cytotoxicity, pancreas cancer cells MIAPaCa-2. Conditions: MTT.
Source text: as §1, §2, §3, §4

Setting [1] is: no * mark (incubation time not specified).
Where [2] appears, read: *: effective 72 hours after incubation.

Results on 7 compounds are retold here after patent publication US20260335282A1, “NOVEL 3-ARYLIDENE-2-INDOLINONE DERIVATIVES FOR THERAPEUTIC USE” (ISTANBUL UNIVERSITESI REKTORLUGU, priority 2022, published 2026).

Some results are limits rather than exact numbers.

`Cc1cccc(CN2C(=O)C(=Cc3c[nH]c4ccccc34)c3cccc(F)c32)c1` [34C]: the IC50 in the test with MCF-7 cells is over 10 µM; in the test with MDA-MB-231 cells, over 10 µM; with A549 cells, 4.7 µM; in the test on CAKI-1 cells (setting [1]) it was 7.61 µM; in the test with A498 cells (setting [1]) it was 3.64 µM; with MCF-10F/Beas2b cells (setting [1]), 4.1 µM. The IC50 in the test on HUVEC cells (setting [1]) was 1.69 µM; in the test with HT-29 cells, over 10 µM; in the test on HCT-116 cells, 0.64 µM; with MIAPaCa-2 cells (setting [1]) it was over 10 µM.

As for `Cc1ccc2c(c1)/C(=C/c1c[nH]c3ccccc13)C(=O)N2Cc1ccc(Cl)cc1` [47C], the IC50 with MCF-7 cells is 5 µM; in the test with MDA-MB-231 cells, over 10 µM; in the test with A549 cells it was 2.65 µM; in the test on CAKI-1 cells (setting [1]), 4.66 µM; in the test on A498 cells (setting [2]), 0.9 µM; in the test with MCF-10F/Beas2b cells (setting [2]) it was 2.6 µM. Also, the IC50 with HUVEC cells (setting [1]), in the test on HT-29 cells, with HCT-116 cells and in the test with MIAPaCa-2 cells (setting [1]) was over 10 µM in each case. In the test on MCF-10F/Beas2b cells (MCF-10F/Beas2b vs breast or kidney cancer cells, cancer line not given), the “Selectivite Index (SI), MCF-10F/Beas2b (Table 1)” value is on record as 2.88. In addition, the “Selectivite Index (SI), HUVEC (Table 1)” value in the test with HUVEC cells (HUVEC vs breast or kidney cancer cells, cancer line not given) is listed as over 11.11.

As for `O=C1/C(=C\c2c[nH]c3ccccc23)c2cccc(F)c2N1Cc1cccc(Cl)c1` [32C], the IC50 with MCF-7 cells was 3.86 µM; with MDA-MB-231 cells, 4.53 µM; in the test with A549 cells, over 10 µM; in the test on CAKI-1 cells (setting [2]), 8.76 µM; in the test on A498 cells (setting [1]), 8.26 µM; with MCF-10F/Beas2b cells (setting [1]), 1.35 µM. In addition, the IC50 in the test with HUVEC cells (setting [2]) worked out at 1 µM; with HT-29 cells, 1.65 µM; in the test on HCT-116 cells, 4.31 µM; with MIAPaCa-2 cells (setting [1]), 1.35 µM.

`Cc1cccc(CN2C(=O)/C(=C\c3c[nH]c4ccccc34)c3cc(F)ccc32)c1` [13C]: the IC50 with MCF-7 cells is over 10 µM; with MDA-MB-231 cells, over 10 µM; in the test with A549 cells it was 3.43 µM; in the test with CAKI-1 cells (setting [1]) it was over 10 µM; with A498 cells (setting [1]), 2.66 µM; in the test with MCF-10F/Beas2b cells (setting [1]), 2.63 µM. Also, the IC50 in the test with HUVEC cells (setting [1]) was 2.24 µM; in the test on HT-29 cells, over 10 µM; in the test on HCT-116 cells, over 10 µM; in the test on MIAPaCa-2 cells (setting [2]), 1.51 µM.

Regarding `Cc1ccc2c(c1)/C(=C/c1c[nH]c3ccccc13)C(=O)N2Cc1ccc(F)cc1` [45C], the IC50 is over 10 µM in the test on MCF-7 cells; over 10 µM in the test with MDA-MB-231 cells; 2.22 µM with A549 cells; 4.91 µM with CAKI-1 cells (setting [2]); 0.78 µM in the test on A498 cells (setting [2]); 2.89 µM in the test on MCF-10F/Beas2b cells (setting [2]). In addition, the IC50 with HUVEC cells (setting [1]) was 2.62 µM; in the test with HT-29 cells it was over 10 µM; in the test on HCT-116 cells, 0.47 µM; in the test on MIAPaCa-2 cells (setting [1]), over 10 µM. Further, the “Selectivite Index, MCF-10F/Beas2b (Table 2)” value in the test with MCF-10F/Beas2b cells (MCF-10F/Beas2b vs colon or pancreas cancer cells, cancer line not given) turned out to be 6.14. Moreover, the “Selectivite Index, HUVEC (Table 2)” value in the test with HUVEC cells (HUVEC vs colon or pancreas cancer cells, cancer line not given) is 5.57.

As to `Cn1cc(/C=C2\C(=O)N(Cc3ccccc3)c3ccccc32)c2ccccc21` [Y12], the IC50 in the test with MCF-7 cells, in the test on MDA-MB-231 cells, with A549 cells, in the test on CAKI-1 cells (setting [1]), in the test with A498 cells (setting [1]) and in the test with HUVEC cells (setting [1]) was over 10 µM throughout. Further, the IC50 in the test with HT-29 cells was over 10 µM; in the test on HCT-116 cells it was 1.46 µM; in the test on MIAPaCa-2 cells (setting [1]) it was over 10 µM.

`Cc1cccc(CN2C(=O)/C(=C\c3c[nH]c4ccccc34)c3cc(OC(F)(F)F)ccc32)c1` [6C]: the IC50 in the test with MCF-7 cells is 4.72 µM; with MDA-MB-231 cells, 9.87 µM; with A549 cells, over 10 µM; in the test with CAKI-1 cells (setting [1]), 9.66 µM; in the test on A498 cells (setting [1]) it was over 10 µM; in the test on HUVEC cells (setting [1]), over 10 µM. In addition, the IC50 with HT-29 cells, with HCT-116 cells and in the test on MIAPaCa-2 cells (setting [2]) was over 10 µM throughout.

As a reminder, the IC50 is the concentration needed to halve the response being measured.
